The values below come from paper PMC10536928, “Discovery of New Pyrrolo[2,3-d]pyrimidine Derivatives as Potential Multi-Targeted Kinase Inhibitors and Apoptosis Inducers” (Pharmaceuticals, 2023).

Series [1] deals with hepatocellular carcinoma (HepG2). Nature of the series: MTT cytotoxicity assay. Type of series: cell-based. As to conditions: Homo sapiens, 24 h exposure, mean ± SD of triplicate. The method, then: (§1) The cytotoxic effects of compounds 5a–m were evaluated using a standard MTT method against four different cancer cell lines, namely mammary gland cancer (MCF-7), hepatocellular carcinoma (HepG2), breast cancer (MDA-MB-231), and epithelioid cervix carcinoma (HeLa). […] These findings highlight the potential of these compounds as candidates for further development as cytotoxic agents for cancer treatment.
(§2) The cytotoxicity of compounds 5a–m was assessed against various cancer cell lines and one normal cell line using the described methodology. In brief, the cells were cultured in 96-well plates with a density of 1.0 × 10^4 cells per well, supplemented with 10% fetal bovine serum (FBS), an antibiotic cocktail, and RPMI 11,640 medium. The cells were then incubated for 48 h with 5% CO2 and 100% relative humidity at 37 °C. […] Following treatment, the addition of 20 µL of MTT solution was added to each well and incubation was continued for another 4 h, after which dimethyl sulfoxide (100 µL) was used to dissolve the resulting insoluble formazan. The absorbance was measured at 570 nm using a BioTek EXL 800 plate reader (Agilent Technologies, CA, USA). By comparing the absorbance of treated samples to untreated samples, the relative cell viability percentage was calculated as (A570 of treated samples/A570 of untreated sample) × 100. The IC50 values were determined based on triplicate measurements.
(Tetrazolium dyes change colour on reduction, which living cells bring about.)

The test system of series [2] is mammary gland cancer (MCF-7). Nature of the series: MTT cytotoxicity assay. Conditions: Homo sapiens, MCF7, 24 h, 24 h exposure, mean ± SD of triplicate. The class given is cell-based. The method, then: as §1, §2
Series [3] relates to breast cancer (MDA-MB-231). Nature of the series: MTT cytotoxicity assay. The class given is cell-based. As to conditions: Homo sapiens, 24 h exposure, mean ± SD of triplicate. The method, then: as §1, §2
Series [4] has as its system epithelioid cervix carcinoma (HeLa). Nature of the series: MTT cytotoxicity assay. Type of series: cell-based. Conditions: Homo sapiens, 24 h exposure, mean ± SD of triplicate.
The subject of series [5] is four different cancer cell lines (MCF-7, HepG2, MDA-MB-231, HeLa). The series can be described thus: MTT cytotoxicity assay, range over the four cell lines. Type of series: cell-based. Conditions: read-out: IC50 values, range over the tested cancer cell lines. The method, then:
as §1, §2

Another series has as its target T1, VEGFR2 (Homo sapiens, UniProt P35968).
T1 construct: purchased
The series can be described thus: In vitro protein kinase inhibition assay (ELISA kit). Conditions: triplicate. The class given is biochemical. How it is done:
(§3) In accordance with the documented procedures, fifteen derivatives of the synthesized compounds were evaluated for their inhibitory effects on EGFR, VEGFR-2, Her2, and CDK2 using specific human ELISA kits (Enzyme-Linked Immunosorbent Assay) designed for each respective kinase enzyme. Initially, various concentrations of the synthesized compounds were combined with specific antibodies for each enzyme in individual wells of a 96-well plate, followed by incubation at room temperature for 2.5 h. Subsequently, the plate was washed, and a biotin antibody (100 µL), prepared in-house, was added and allowed to incubate at ambient temperature for 1 h. After another washing step, a solution of streptavidin (100 µL) was introduced to each well and left for 45 min at room temperature. Following a third round of washing, a TMB Substrate (100 µL) reagent was applied to all wells and incubated for 30 min at room temperature. Finally, the reaction was terminated by adding 50 µL of a stop solution, and the absorbance was directly measured at 450 nm. A standard curve was constructed, illustrating the relationship between concentration (X-axis) and absorbance (Y-axis).
In general terms: An ELISA detects its analyte on a solid surface through an enzyme-linked reagent.

The next series deals with T2, EGFR (Homo sapiens, UniProt P00533).
T2 construct: purchased
Described as above. Conditions: triplicate. Type of series: biochemical. How it is done: as §3

The next series deals with T3, Her2 (Homo sapiens, UniProt P04626).
T3 construct: purchased
The series is described as above. Conditions: triplicate. Type of series: biochemical. How it is done:
as §3

The target of another series is T4, CDK2 (Homo sapiens, UniProt P24941).
T4 construct: purchased
Described as above. Type of series: biochemical. Conditions: triplicate. How it is done:
as §3

The test system of a further series is Bcl-2. Nature of the series: Apoptotic protein levels assay (ELISA) in HepG2 cells. Type of series: cell-based. As to conditions: 24 h, ELISA, control 11.7 ± 0.36. The text has this:
(§4) To validate the mechanism of cell death and the induction of apoptosis caused by compound 5k, the expression levels of some apoptotic proteins were investigated. […] Specifically, the levels of caspase-3 (6.9 folds higher than the control) and Bax (2.6 folds higher than the control) were higher in the group treated with 5k compared to the control group. Caspase-3 is a key enzyme involved in the execution of apoptosis, while Bax is a pro-apoptotic protein that promotes cell death. […] Bcl-2 is a protein that inhibits apoptosis, so the lower levels of Bcl-2 in the 5k treated group further support the notion that treatment with 5k may induce apoptosis in HepG2 cells. […] These findings may have implications for the development of novel therapies for diseases involving abnormal cell death, including cancer. Further studies are warranted in order to elucidate the underlying mechanisms of action of compound 5k and to assess its potential therapeutic applications.
(§5) The ELISA technique was employed to assess the impact of compound 5k on the alteration of protein levels associated with caspase-3, BAX, and Bcl-2. Specifically, the following ELISA kits were utilized: KHO1091 (InvitrogenTM, Grand Island, NY, USA) for caspase-3, EIA-4860 and EIA-4487 for BAX, (DRU International INC., Mountainside, NJ, USA), and 99-0042 (InvitrogenTM, Grand Island, NY, USA) for Bcl-2 for the respective measurements. The experimental procedures were conducted according to the instructions provided by the manufacturers and our recently published article. Initially, HepG2 cells were cultured in triplicate in 96-well plates. Following a 24-h incubation period, the cells were subjected to various concentrations of compound 5k, while a control group was treated with 0.1% DMSO (V/V). After an additional 24-h incubation, the absorbance levels were assessed using a BioTek Synergy H1 Multi-mode Reader (Agilent Technologies, Santa Clara, CA, USA) at wavelengths ranging from 450 to 650 nm.

Another series has as its system Bax. The series is described as above. Type of series: cell-based. As to conditions: 24 h, ELISA, control 67.09 ± 4.94.
Excerpt: as §4, §5

Another series deals with caspase-3. The series is described as above. Type of series: cell-based. As to conditions: 24 h, ELISA, control 66.28 ± 4.66.
Excerpt: as §4, §5

The term IC50 denotes the concentration needed to halve the response being measured. What is called melting point is the temperature, or range, at which the solid turns liquid.

T1 sequence (P35968 20-1356): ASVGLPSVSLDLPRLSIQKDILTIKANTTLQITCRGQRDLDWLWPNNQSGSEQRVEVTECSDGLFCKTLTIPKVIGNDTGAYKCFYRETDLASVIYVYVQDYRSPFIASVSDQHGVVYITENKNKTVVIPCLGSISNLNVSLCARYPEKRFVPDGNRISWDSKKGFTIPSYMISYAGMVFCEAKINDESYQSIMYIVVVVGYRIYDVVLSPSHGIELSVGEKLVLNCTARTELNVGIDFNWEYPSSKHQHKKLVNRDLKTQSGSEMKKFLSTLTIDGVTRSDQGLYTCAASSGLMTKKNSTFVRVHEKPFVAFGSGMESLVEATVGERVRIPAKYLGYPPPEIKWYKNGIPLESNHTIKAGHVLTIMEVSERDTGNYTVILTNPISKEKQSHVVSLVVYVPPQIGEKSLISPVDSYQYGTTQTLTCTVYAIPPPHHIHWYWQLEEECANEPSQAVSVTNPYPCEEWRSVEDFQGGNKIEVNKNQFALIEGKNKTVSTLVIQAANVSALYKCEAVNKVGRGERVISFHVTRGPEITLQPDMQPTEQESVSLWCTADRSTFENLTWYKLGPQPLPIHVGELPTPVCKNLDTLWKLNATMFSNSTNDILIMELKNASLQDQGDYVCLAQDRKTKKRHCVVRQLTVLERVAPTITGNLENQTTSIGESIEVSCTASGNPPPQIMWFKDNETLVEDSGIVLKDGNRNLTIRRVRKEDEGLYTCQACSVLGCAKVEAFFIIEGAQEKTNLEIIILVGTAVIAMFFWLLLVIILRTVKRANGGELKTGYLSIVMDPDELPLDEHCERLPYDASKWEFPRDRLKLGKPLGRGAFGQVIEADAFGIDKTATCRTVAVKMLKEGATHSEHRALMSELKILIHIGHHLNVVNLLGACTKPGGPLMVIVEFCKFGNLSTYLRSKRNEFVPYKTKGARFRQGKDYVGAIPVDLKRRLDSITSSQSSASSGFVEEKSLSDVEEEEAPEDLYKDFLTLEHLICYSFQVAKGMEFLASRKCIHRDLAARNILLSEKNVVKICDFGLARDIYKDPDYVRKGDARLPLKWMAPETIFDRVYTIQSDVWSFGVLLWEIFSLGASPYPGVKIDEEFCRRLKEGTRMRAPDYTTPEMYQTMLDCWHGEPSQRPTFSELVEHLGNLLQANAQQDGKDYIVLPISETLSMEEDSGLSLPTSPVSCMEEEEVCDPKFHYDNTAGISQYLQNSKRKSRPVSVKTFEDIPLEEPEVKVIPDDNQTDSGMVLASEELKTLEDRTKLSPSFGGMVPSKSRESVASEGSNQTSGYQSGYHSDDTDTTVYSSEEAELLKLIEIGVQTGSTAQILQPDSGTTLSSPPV
T3 sequence (P04626 23-1255): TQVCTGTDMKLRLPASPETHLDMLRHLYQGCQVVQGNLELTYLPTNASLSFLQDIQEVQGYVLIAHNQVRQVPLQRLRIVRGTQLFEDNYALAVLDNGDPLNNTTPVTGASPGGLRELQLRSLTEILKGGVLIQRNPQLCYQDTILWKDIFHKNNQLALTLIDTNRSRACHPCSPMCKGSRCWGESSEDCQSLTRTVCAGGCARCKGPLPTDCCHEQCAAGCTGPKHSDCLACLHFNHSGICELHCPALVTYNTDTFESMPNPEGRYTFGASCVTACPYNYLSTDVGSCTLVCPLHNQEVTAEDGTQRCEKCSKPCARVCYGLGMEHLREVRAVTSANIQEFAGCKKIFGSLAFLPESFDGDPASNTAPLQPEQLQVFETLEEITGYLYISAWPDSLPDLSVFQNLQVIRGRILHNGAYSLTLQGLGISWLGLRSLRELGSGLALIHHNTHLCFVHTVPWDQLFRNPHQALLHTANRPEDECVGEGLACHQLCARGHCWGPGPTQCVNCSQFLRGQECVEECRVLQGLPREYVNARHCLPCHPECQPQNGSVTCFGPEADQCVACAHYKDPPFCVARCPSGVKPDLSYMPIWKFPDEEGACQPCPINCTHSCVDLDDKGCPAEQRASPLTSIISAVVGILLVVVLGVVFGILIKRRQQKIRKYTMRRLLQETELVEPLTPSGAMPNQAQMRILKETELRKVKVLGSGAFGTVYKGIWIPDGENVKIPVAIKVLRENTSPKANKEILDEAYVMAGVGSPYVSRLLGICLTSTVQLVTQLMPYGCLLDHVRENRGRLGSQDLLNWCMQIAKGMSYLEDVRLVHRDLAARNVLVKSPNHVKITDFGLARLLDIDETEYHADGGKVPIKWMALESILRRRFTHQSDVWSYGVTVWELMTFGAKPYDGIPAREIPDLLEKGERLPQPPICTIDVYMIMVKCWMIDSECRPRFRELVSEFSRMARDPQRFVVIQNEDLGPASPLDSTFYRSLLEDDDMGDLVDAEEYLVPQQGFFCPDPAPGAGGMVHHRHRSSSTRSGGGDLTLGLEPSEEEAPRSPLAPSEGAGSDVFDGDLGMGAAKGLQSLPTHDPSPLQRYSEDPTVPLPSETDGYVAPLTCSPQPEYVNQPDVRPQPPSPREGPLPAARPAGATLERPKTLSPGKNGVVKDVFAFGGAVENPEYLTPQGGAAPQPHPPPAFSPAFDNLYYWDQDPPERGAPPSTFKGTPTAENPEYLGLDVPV
T2 sequence (P00533 25-1210): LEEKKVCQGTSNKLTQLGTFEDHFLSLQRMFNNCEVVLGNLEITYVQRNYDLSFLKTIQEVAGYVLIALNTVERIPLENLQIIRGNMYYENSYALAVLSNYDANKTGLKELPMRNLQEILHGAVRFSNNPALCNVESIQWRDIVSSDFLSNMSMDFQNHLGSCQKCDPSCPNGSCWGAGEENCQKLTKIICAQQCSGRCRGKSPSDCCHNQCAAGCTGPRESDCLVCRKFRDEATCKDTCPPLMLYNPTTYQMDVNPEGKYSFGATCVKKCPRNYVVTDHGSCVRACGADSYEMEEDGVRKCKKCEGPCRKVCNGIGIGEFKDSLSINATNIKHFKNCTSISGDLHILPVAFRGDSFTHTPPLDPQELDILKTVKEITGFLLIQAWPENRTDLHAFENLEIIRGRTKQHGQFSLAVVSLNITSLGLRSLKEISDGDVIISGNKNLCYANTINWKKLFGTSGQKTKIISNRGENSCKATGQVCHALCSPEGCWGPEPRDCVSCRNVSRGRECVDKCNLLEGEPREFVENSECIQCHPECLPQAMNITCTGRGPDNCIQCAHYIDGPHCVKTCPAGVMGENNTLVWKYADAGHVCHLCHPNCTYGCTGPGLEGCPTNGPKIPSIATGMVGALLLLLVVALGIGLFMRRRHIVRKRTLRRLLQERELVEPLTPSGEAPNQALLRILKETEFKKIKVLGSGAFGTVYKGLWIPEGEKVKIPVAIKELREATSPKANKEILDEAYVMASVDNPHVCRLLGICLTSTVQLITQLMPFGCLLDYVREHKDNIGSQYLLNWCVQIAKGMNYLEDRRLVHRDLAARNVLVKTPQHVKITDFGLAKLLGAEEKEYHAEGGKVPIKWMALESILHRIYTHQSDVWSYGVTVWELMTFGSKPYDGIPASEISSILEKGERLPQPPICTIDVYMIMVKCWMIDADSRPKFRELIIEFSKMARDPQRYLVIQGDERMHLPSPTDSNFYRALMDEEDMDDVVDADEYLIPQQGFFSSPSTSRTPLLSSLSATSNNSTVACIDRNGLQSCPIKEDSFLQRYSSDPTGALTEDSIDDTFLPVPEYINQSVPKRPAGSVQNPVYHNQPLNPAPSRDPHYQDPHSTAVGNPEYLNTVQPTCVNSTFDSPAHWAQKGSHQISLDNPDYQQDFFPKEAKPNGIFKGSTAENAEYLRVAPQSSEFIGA

The molecule `O=C(N/N=C/c1ccccc1)c1ccc(Nc2ncnc3[nH]ccc23)cc1` [Compound 5a, (E)-4-((7H-Pyrrolo[2,3-d]pyrimidin-4-yl)amino)-N’-benzylidenebenzohydrazide] displayed a melting point of 294 °C. Also, the IC50 in series [1] amounted to 43.1 ± 2.7 µM. The same molecule showed an IC50 in series [2] of 64.9 ± 3.6 µM. This molecule gave an IC50 in series [3] of 56.2 ± 3.2 µM. In addition, half-maximal inhibition in [4] (IC50) was put at 68.2 ± 3.3 µM. In series [5], the half-maximal inhibitory concentration (IC50) is 43.1 to 68.2 µM.

The molecule `O=C(N/N=C/c1ccccc1Br)c1ccc(Nc2ncnc3[nH]ccc23)cc1` [Compound 5b, (E)-4-((7H-Pyrrolo[2,3-d]pyrimidin-4-yl)amino)-N’-(2-bromobenzylidene)benzohydrazide] displayed a melting point of 294 °C. Besides, the midpoint of inhibition in series [1], the IC50, lay at 53.2 ± 3.1 µM. The same molecule yielded an IC50 in series [2] of 83.9 ± 4.3 µM. Besides, the IC50 in [3] worked out at 79.2 ± 4.1 µM. The molecule further registered a half-inhibitory concentration (IC50) in [4] of 90.6 ± 4.7 µM.

`O=C(N/N=C/c1cccc(Br)c1)c1ccc(Nc2ncnc3[nH]ccc23)cc1` [Compound 5c, (E)-4-((7H-Pyrrolo[2,3-d]pyrimidin-4-yl)amino)-N’-(3-bromobenzylidene)benzohydrazide] yielded a melting point of 296 °C. Moreover, the 50% inhibitory concentration (IC50) in series [1] amounted to 48.5 ± 2.9 µM. The molecule also had an IC50 in [2] of 80.7 ± 4 µM. The same molecule yielded an IC50 in [3] of 75.8 ± 3.9 µM. Besides, the IC50 in series [4] is 85.5 ± 4.1 µM.

Turning to `O=C(N/N=C/c1ccc(Br)cc1)c1ccc(Nc2ncnc3[nH]ccc23)cc1` [Compound 5d, (E)-4-((7H-Pyrrolo[2,3-d]pyrimidin-4-yl)amino)-N’-(4-bromobenzylidene)benzohydrazide], the melting point stood at 321 °C. The molecule further had an IC50 in [1] of 62.4 ± 3.5 µM. In series [2], this molecule returned a 50% inhibitory concentration (IC50) of 88.2 ± 4.5 µM. The molecule further gave an IC50 in series [3] of 81.5 ± 4 µM. The same molecule yielded an IC50 in series [4] of 95.8 ± 5.1 µM.

Take `O=C(N/N=C/c1ccccc1Cl)c1ccc(Nc2ncnc3[nH]ccc23)cc1` [Compound 5e, (E)-4-((7H-Pyrrolo[2,3-d]pyrimidin-4-yl)amino)-N’-(2-chlorobenzylidene)benzohydrazide]: the IC50 is 29.1 ± 2.5 µM in [1]; 55.3 ± 3.1 µM in [2]; 48.1 ± 2.6 µM in [3]; 53 ± 2.9 µM in series [4]; 29 to 59 µM in [5]; 593 nM at VEGFR2. The IC50 against EGFR was found to be 1140 nM; at Her2, 335 nM; at CDK2, 2120 nM.

`O=C(N/N=C/c1cccc(Cl)c1)c1ccc(Nc2ncnc3[nH]ccc23)cc1` [Compound 5f, (E)-4-((7H-Pyrrolo[2,3-d]pyrimidin-4-yl)amino)-N’-(3-chlorobenzylidene)benzohydrazide] came in with a melting point of 281 °C. Further, the midpoint of inhibition in series [1], the IC50, lay at 74.6 ± 3.9 µM. The same molecule showed a half-maximal inhibitory concentration (IC50) in [2] of 94.7 ± 4.9 µM. In addition, the 50% inhibitory concentration (IC50) in series [3] came to 86.6 ± 4.6 µM. The molecule also had an IC50 in series [4] greater than 100 µM.

For the molecule `O=C(N/N=C/c1ccc(Cl)cc1)c1ccc(Nc2ncnc3[nH]ccc23)cc1` [Compound 5g, (E)-4-((7H-Pyrrolo[2,3-d]pyrimidin-4-yl)amino)-N’-(4-chlorobenzylidene)benzohydrazide], the melting point came to 314 °C. Half-maximal inhibition in series [1] (IC50) was put at 51.9 ± 3 µM. Further, the IC50 in [2] was 73.3 ± 3.9 µM. The IC50 in [3] was determined as 67.6 ± 3.7 µM. This molecule gave an IC50 in series [4] of 79.7 ± 3.9 µM.

For the molecule `O=C(N/N=C/c1ccccc1F)c1ccc(Nc2ncnc3[nH]ccc23)cc1` [Compound 5h, (E)-4-((7H-Pyrrolo[2,3-d]pyrimidin-4-yl)amino)-N’-(2-fluorobenzylidene)benzohydrazide], the IC50 in [1] is 33.2 ± 2.4 µM; in [2], 52.4 ± 2.9 µM; in series [3], 45.2 ± 2.5 µM; in series [4] it was 49.9 ± 2.8 µM; in series [5], 29 to 59 µM; on VEGFR2, 1040 nM. In addition, the IC50 was 636 nM against EGFR, 206 nM against Her2 and 1020 nM against CDK2.

`O=C(N/N=C/c1cccc(F)c1)c1ccc(Nc2ncnc3[nH]ccc23)cc1` [Compound 5i, (E)-4-((7H-Pyrrolo[2,3-d]pyrimidin-4-yl)amino)-N’-(3-fluorobenzylidene)benzohydrazide] showed a melting point of 295 °C. The same molecule yielded an IC50 in series [1] of 45 ± 2.8 µM. Further, half-maximal inhibition in series [2] (IC50) required 69.9 ± 3.8 µM. The same molecule gave an IC50 in [3] of 63.8 ± 3.5 µM. Also, the IC50 in series [4] is 76.1 ± 3.7 µM.

In the case of `O=C(N/N=C/c1ccc(F)cc1)c1ccc(Nc2ncnc3[nH]ccc23)cc1` [Compound 5j, (E)-4-((7H-Pyrrolo[2,3-d]pyrimidin-4-yl)amino)-N’-(4-fluorobenzylidene)benzohydrazide], the melting point came to 309 °C. For the same molecule, the IC50 in series [1] was 42.6 ± 2.8 µM. This molecule also gave an IC50 in series [2] of 66.4 ± 3.6 µM. The molecule further registered an IC50 in series [3] of 58.5 ± 3.3 µM. The IC50 in series [4] was 71.7 ± 3.5 µM.

Take `O=C(N/N=C/c1cc(Br)ccc1O)c1ccc(Nc2ncnc3[nH]ccc23)cc1` [Compound 5l, (E)-4-((7H-Pyrrolo[2,3-d]pyrimidin-4-yl)amino)-N’-(5-bromo-2-hydroxybenzylidene)benzohydrazide]: the IC50 in series [1] is 36.3 ± 2.6 µM; in series [2], 47.1 ± 2.5 µM; in [3] it was 41.3 ± 2.4 µM; in series [4], 46.1 ± 2.4 µM; in series [5], 29 to 59 µM; at VEGFR2 it was 1200 nM. The figures for the IC50 at EGFR, against Her2 and on CDK2 were 406 nM, 193 nM and 599 nM, respectively.

As to `O=C(N/N=C/c1cccc(C(F)(F)F)c1)c1ccc(Nc2ncnc3[nH]ccc23)cc1` [Compound 5m, (E)-4-((7H-Pyrrolo[2,3-d]pyrimidin-4-yl)amino)-N’-(3-(trifluoromethyl)benzylidene)benzohydrazide], the melting point was 280 °C. Also, in series [1], the IC50 was 39.8 ± 2.7 µM. This molecule also gave a concentration for half-maximal inhibition (IC50) in [2] of 61.9 ± 3.3 µM. The IC50 in [3] came to 53.7 ± 3 µM. For the same molecule, the IC50 in [4] worked out at 64.5 ± 3.4 µM.

As to `CN[C@@H]1C[C@H]2O[C@@](C)([C@@H]1OC)n1c3ccccc3c3c4c(c5c6ccccc6n2c5c31)C(=O)NC4` [Staurosporine, reference compound], the “Protein Expression (Pg/mL) Bcl-2” value in the series with Bcl-2 is 4.404 ± 0.09 pg/mL. Further, the “Protein Expression (Pg/mL) Bax” value with Bax amounted to 276.9 ± 2.26 pg/mL. In addition, the “Protein Expression (Pg/mL) Caspase-3” value in the series with caspase-3 was 684.6 ± 13.4 pg/mL.

Molecule `CCN(CC)CCNC(=O)c1c(C)[nH]c(/C=C2\C(=O)Nc3ccc(F)cc32)c1C` [Sunitinib, reference compound] came in with an IC50 in [4] of 21.8 ± 1.7 µM.
